Results: US20080119517A1, “COMPOSITIONS AND METHODS FOR PROTECTING AGAINST MITOCHONDRIA COMPONENT-MEDIATED PATHOLOGY” (Cornell Research Foundation, Inc., priority 2003, published 2008)

What was measured:
liver mitochondria = settings: cited from earlier work
[1] = system: mouse middle cerebral artery occlusion (MCAO)/reperfusion; experiment: Middle cerebral artery occlusion (MCAO)/reperfusion, promethazine study; type: in vivo
Method: Middle cerebral artery occlusion/reperfusion studies were conducted as previously described. […] All animal experiments were conducted in accordance with National Institutes of Health and institutional guidelines. Male C57/B6 (Charles River Laboratories) mice weighing 18-29 g were housed in standard temperature (22±1° C.) and light-controlled (light on 07:00-21:00) environment with ad libitum access to food and water. Weight of animals undergoing stroke were restricted to less than 22 g. Animals undergoing stroke were randomized to two groups: untreated OP injection with 0.9% saline) and treated (IP injection with promethazine solution). Weight of animals undergoing sham operations was liberalized to 18-29 g. Surgery and Occlusion: Immediately before surgery, each mouse was anesthetized with 2% isoflurane (70% N2O/30% O2). During surgery, isoflurane was lowered to 1%. A midline incision was made in the neck and the right common carotid artery was dissected. The right MCA was occluded with a 7-0 nylon filament after permanent ligation of the external carotid artery and temporary ligation of the common carotid artery. […] Right MCA occlusion was defined as greater than or equal to a 90% drop of peak velocity measured by the laser Doppler flowmetry drop. […] The occluding filament was removed after 120 minutes. Sham operations consisted of the same duration and concentration of anesthesia, midline incision, doppler probe insertion over right temporal bone, and dissection of common carotid artery but no manipulation of the common carotid artery or external carotid artery. The surgeon was bided to treatment group. All mice were sacrificed at 24 hrs post perfusion. Experiments were in accordance with protocols approved by the Harvard Medical School Animal Care Committee. Drug Treatment: Both treated and control groups received two IP injections: the first one delivered 1 hr prior to ischemia and the second delivered 12 hrs later. Each i.p. dose was 10 mg/kg (in 0.5 ml) of promethazine dissolved in 0.9% NaCl or an equal volume of buffer alone. […] Determination of Infarct Volume: After 24 hrs of reperfusion, the mice were sacrificed. The brains were quickly removed and chilled for 2 minutes. The cerebellum was removed, Coronal sections (2 mm thick; n=6) were cut in a craniotome. […] After staining, each slice was scanned by an HP scanjet 4200 C, The unstained areas in each hemisphere were quantified and the ischemic area per slice=left (normal side)-right (ischemic side). […] The infarct volume was calculated by summing up the infracted areas in the 6 slices and calculating the volume for a cylinder (area×height). […] The examiner was blinded to treatment group.

[2] = system: primary cerebrocortical neurons; experiment: Oxygen-glucose deprivation (OGD) of cultured primary cerebrocortical neurons; type: cell-based, mouse; settings: for OGD-mediated neuronal death (LDH release): promethazine 0.1 μM (p=0.05) and 0.5 μM (p<0.001)
Method: Heterocyclic-mediated protection was next examined in two models of stroke: (i) oxygen-glucose deprivation (OGD) of cultured primary cerebrocortical neurons, and; (ii) in the mouse, middle cerebral artery occlusion (MCAO)/reperfusion.
Neurotoxicity studies were conducted as previously described. […] Cerebral cortex of mouse embryos at day 15 (E15) were freed from meninges and separated from olfactory bulb and hippocampus.
OGD of primary cerebrocortical neurons is a widely used cell culture model of stroke-related pathology. […] Caspase-3 activation plays a key role in hypoxia/ischemia-mediated injury. To gam insight into the mechanism of promethazine-mediated neuroprotection, it was evaluated whether this compound could inhibit OGD-mediated caspase-3 activation.

humans = settings: human, in vivo; cited from earlier work
[3] = system: 3-nitropropionic acid induced striatal lesions in Lewis rats; experiment: 3-nitropropionic acid striatal lesion model (Huntington's Disease); type: in vivo, rat
Method: Male Lewis 344 rats were administered 3-nitroproprionic acid by subcutaneous Alzet pumps. 3-Nitropropionic acid is a mitochondrial toxin which causes selective degeneration in the basal ganglia, mice, rats and primates. The lesions that it produces highly mimic the neuropathologic features associated with Huntington's Disease. The male Lewis rats weighed from about 340 to abut 370 grams and were obtained from Charles River Laboratories. At twelve weeks of age, the subcutaneous pumps were implanted. The concentration for each individual rat was calculated so that the animals received a dose of 38 mg/kg/d. Control animals were implanted with empty osmotic pumps. The 3-nitropropionic acid was administered for one week. Animals were treated with either phosphate buffered saline (PBS) promethazine in PBS at doses of 5 to 40 mg/kg/d. One week after the administration of the compound the rats were deeply anesthetized and transcardially perfused with 4% paraformaldehyde in PBS. Subsequently, 50 μm sections were obtained and stained for nissel substance. The lesion volumes were then calculated using stereologic procedures.

[4] = system: MPTP-induced dopamine depletion and dopaminergic neuron loss; experiment: MPTP experimental animal model for Parkinson's Disease; type: in vivo
Text: 1-Methyl-4-phenyl-1,2,3,6-tetrahydropyridine (MPTP) has been employed as an experimental animal model for Parkinson's Disease. As evidenced by FIG. 9, promethazine appeared to have no effect on striatal dopamine levels at base line.

phospholipase A2 = type: biochemical
heart during ischemia = settings: cited from earlier work

NCCc1c[nH]cn1 [Histamine]
swelling of liver mitochondria (liver mitochondria): cause swelling

CC(CN1c2ccccc2Sc2ccccc21)N(C)C (stereo not shown) [Promethazine]
reduction in lesion size compared with saline-treated mice ([1]; 10 mg/kg i.p. 1 hr prior to ischemia and 12 hrs later, 24 hrs reperfusion, n=13, p<0.005): 53% | reduction of maximal infarct size ([1]; 10 mg/kg i.p. twice): 65% | reduction of variability of the injury ([1]; 10 mg/kg i.p. twice): 65% | neurologic score ([1]; 30 minute post-ischemia evaluation): not different | neurologic impairment score ([1]; 24 hours following MCAO, p<0.05): significantly improved | protection from MCA occlusion/reperfusion ([1]; total stroke volume P<0.005): protects | OGD-mediated caspase-3 activation [2]: reduced | OGD-mediated neuronal death (LDH release) [2]: inhibited | OGD-mediated neuronal death (LDH release) ([2]; listed as promethazine): protection | tolerability in humans (humans): well-tolerated drug with few adverse side effects | striatal lesion volume ([3]; 3-nitropropionic acid 38 mg/kg/d for one week, promethazine 5 to 40 mg/kg/d, untreated ~14 mm^3): ~4 mm^3 | 3-nitropropionic induced lesions ([3]; increasing dosages): blocked | MPTP-induced reduction in striatal dopamine levels ([4]; 20 mg/kg): significantly attenuated | depletion of striatal dopamine levels, dose response ([4]; 2.5, 5, and 40 mg/kg examined, optimal effects at 10 and 40 mg/kg): dose-dependent neuroprotection | loss of dopaminergic neurons in the substantia nigra pars compacta ([4]; 50% cell loss following MPTP): significantly attenuated | striatal dopamine levels at base line ([4]; without MPTP): no effect | PLA2 inhibition (phospholipase A2): does not appear to be a strong

CCN(CC)CCCC(C)Nc1c2ccc(Cl)cc2nc2ccc(OC)cc12 (stereo not shown) [Quinacrine]
protection in the heart during ischemia (heart during ischemia): protective agent
